These results are taken from patent US9062050B2, “Inhibitor of JAK1 and JAK2” (Eli Lilly and Company, priority 2012, dated 2015).

One assay relates to IL-6-STAT3 signaling. Briefly: DS1-AlphaScreen-pSTAT3 cell-based assay. As to conditions: DS1 cells, IL6 10 ng/ml; read-out: IC50, inhibits IL-6-STAT3 signaling (pSTAT3). On the procedure: The DS1-AlphaScreen-pSTAT3-cell-based assay is used to examine the potency of compounds at blocking the IL6-stimulated STAT3 pathway. The JAK-STAT3 pathway is constitutively active in many types of cancers and is implicated in tumor cells for increasing proliferation, survival, and invasion. DS1 cells (ATCC) are cultured in RPMI complete medium with 10% FBS and then adopted and grown in DMEM/High Modified medium supplemented with 10% FBS at 37° C. at 95% humidity and under an atmosphere of 5% CO2. DS1 cells are plated at a density of 4×10^4 cells/well in 96 well-plates and cultured in serum-free culture medium at 37° C. for three hours, followed by pre-treatment either with vehicle alone (DMSO) or test compounds across a range of final concentrations from 0-20 μM for 10 min. IL6 (R&D System, 206-IL) is then added into the cell culture at 10 ng/ml final concentration, which is continued for an additional 30 min at 37° C. Finally, cells are lysed with 5× alpha lysis buffer and transferred to a 384-well plate (PerkinElmer, #6008280) filled with the reaction mixture (TGR Biosciences, South Australia, Australia, #TGRS3S10K) for pSTAT3 detection (#TGRS3SHV100). The plates are sealed and incubated at room temperature for 2 hours, and pSTAT3 is measured by using an Envision06 plate reader (TGR Biosciences, South Australia, Australia). The data are analyzed with ActivityBase 4.0.

A further assay concerns phosphorylation of STAT3. Briefly: Mia-Paca2-MSD-pSTAT3 cell-based assay. Particulars: Homo sapiens, MIA PaCa-2; Mia-paca2 pancreatic cancer cells, stimulated with conditioned medium; read-out: IC50, inhibits the phosphorylation of STAT3. On the procedure:
The Mia-Paca2-MSD (MesoScale Diagnostics)-pSTAT3 cell-based assay is used to examine the potency of compounds at blocking STAT3 phosphorylation in pancreatic cancer cells. Mia-paca2 cells (ATCC) are grown in DMEM complete medium supplemented with 10% FBS at 37° C. in incubator with 5% CO2. Cells are then collected, counted, plated at 4×10^4 cells/well in 96-well plates, and cultured for overnight at 37° C. with 5% CO2. Culture medium is removed from the cells and replaced with serum-free medium containing either vehicle alone (DMSO) or 2× final concentrations of compounds across a range from 0-20 μM at 1:3 dilution (10 dilutions). […] After stimulation, all medium is manually removed as above and cells are lysed in 50 microliters of ice cold 1×MSD lysis buffer (MesoScale Diagnostics, K150DID-2) containing 1×HALT protease and phosphatase inhibitor cocktail ((Thermo Scientific, 78441). The 96-well plates are sealed and then mixed for 2 minutes on an orbital shaker at room temperature, and then immediately frozen at −80° C. overnight. pSTAT3 is detected with the use of the MA6000 MSD Whole Cell Lysate Kit for Phospho-STAT-3 (Tyr 705) (MesoScale Diagnostics, #K150DID-2) as following, plates were blocked with blocking buffer at room temperature for 1-2 hours with shaking, and then washed 4× with washing buffer. […]

On to `Cc1cc(Nc2ccc3ncn([C@@H]4CCc5ccc(F)cc54)c3n2)[nH]n1.Cl.Cl` [Example 1, 3-[(1R)-6-fluoro-2,3-dihydro-1H-inden-1-yl]-N-(3-methyl-1H-pyrazol-5-yl)-3H-imidazo[4,5-b]pyridin-5-amine dihydrochloride], for which the values for the 50% inhibitory concentration (IC50) in the assay with IL-6-STAT3 signaling and in the assay on phosphorylation of STAT3 were 66 nM and 12 nM, respectively.
